Counter-ions that a name gives are not always drawn.
How the values were obtained:
[1] = Particle size distribution test, laser particle size analyzer, dry dispersion; format: physicochemical
Description: The particle size distribution of DPI dry powder was measured by dry dispersion method using laser particle size analyzer, and Dv10, Dv50, Dv90, VMD (Volume median diameter) and SMD (Sauter mean diameter) were determined, respectively.

[2] = In vivo pharmacokinetics, plasma (UPLC-MS/MS); set-up: species or system rat; settings: for half-life: read-out: HLz (biological half-life) (converted); for MRT last: read-out: MRTlast (mean retention time); for concentration at 2 min / concentration at 10 min / concentration at 15 min / concentration at 30 min / concentration at 60 min / concentration at 120 min / concentration at 240 min / concentration at 360 min / concentration at 4 min: read-out: Blood concentration of AH
Description: (§1) SPF-grade healthy SD male rats, body weight 180-220 g, purchased from SPF (Beijing) Biotechnology Co., Ltd (Certificate No. SCXK (Beijing) 2019-0010), were conventionally reared under (23±2)° C., humidity: (50±10)%. This study was conducted with the approval of the Animal Experiment Center of Tianjin University of Traditional Chinese Medicine.
(§2) 108 SPF-grade SD male rats were randomly divided into tail intravenous injection group and pulmonary administration group, with 9 time points of 2 min, 4 min, 10 min, 15 min, 30 min, 1 h, 2 h, 4 h and 6 h per group, 6 rats per time point per group. The rats were fasted for 12 h before the experiment, with water provided. The rats were weighed (to calculate the dose) and numbered, and both groups were intraperitoneally injected with 10% chloral hydrate at a dose of 2 mL/kg. Group 1 was administered BA/AH-DPI saline solution by tail intravenous injection at a dose of 9 mg/kg. Group 2 was administered 3 mg of BA/AH-DPI fine powder at the same dose by spray administration with a DP-4 tracheal insufflator (1.5 mL of air was pushed each time, 3-4 times consecutively). Blood was sampled from the abdominal aorta of the rats in both groups at the above time points after drug administration, and the rats were executed. The obtained whole blood was placed in a centrifuge tube with sodium heparin, centrifuged at 4000 r/min for 10 min, and the upper layer of plasma was separated and stored a refrigerator at −80° C. After blood collection, the thoracic cavity was quickly opened and the lungs of the rats were isolated. The small amount of floating blood on the surface of the lung tissue was washed with saline in an ice bath. The surface of the lung tissue was blotted with filter paper. The trachea was cut off, wrapped in tin foil and placed in a 10 mL centrifuge tube. The lung was weighed precisely, and stored in a refrigerator at −80° C.
(§3) 100 μL of the plasma sample or lung tissue supernatant was precisely absorbed, and 200 μL (100 ng/mL) of methanol solution containing the internal standard was added. The mixture was vortexed and mixed for 3 min, and centrifuged at 12000 r/min for 10 min to obtain the supernatant as the finished sample. The contents of BA and AH were determined by UPLC-MS/MS method.
(§4) Electrospray ion source (ESI source); scan mode: positive (ESI+) detection; detection mode: multi-reactive ion monitoring (MRM). Electrospray voltage: 4 kV; atomization gas: N2; spray gas flow rate (Gas1): 15 psi; ion source temperature: 300° C.
(§5) Meaning of pharmacokinetic parameters: HLz was the biological half-life, i.e., the time required for the amount or blood concentration of the drug in the body to decrease by half; Tmax was the time to peak, i.e., the time required to reach the peak concentration of the drug after administration. Cmax was the peak drug concentration, i.e., the highest blood concentration that occurred after administration of the drug. AUC was the area enclosed by the blood drug concentration curve against the time axis. Vz/F was the apparent volume of distribution, the ratio constant of the amount of drug in the body to the blood concentration when the drug reached dynamic equilibrium in the body. CL/F was the clearance, i.e., the number of apparent volume of distribution of the drug removed from the body per unit time. AUMC was the first order moment of the drug-time curve, i.e. the area under the curse of the product of time and blood concentration versus time. MRTlast was the mean retention time, i.e., the average of the residence time of drug molecules in the body.

[3] = In vivo pharmacokinetics, lung tissue homogenate (UPLC-MS/MS); set-up: species or system rat; settings: for CL/F (clearance) / Cmax / Tmax / half-life / MRT last: AH in rat lung tissue; for concentration at 2 min / concentration at 4 min / concentration at 10 min / concentration at 15 min / concentration at 30 min / concentration at 60 min / concentration at 120 min / concentration at 240 min / concentration at 360 min / Cmax / Tmax / half-life / MRT last: male; for concentration at 2 min / concentration at 4 min / concentration at 10 min / concentration at 15 min / concentration at 30 min / concentration at 60 min / concentration at 120 min / concentration at 240 min / concentration at 360 min: rat lung tissue homogenate, read-out: Drug concentration of AH in lung tissue; for Cmax / Tmax / half-life / MRT last: lung tissue (homogenate supernatant); for half-life: read-out: HLz (biological half-life) (converted); for MRT last: read-out: MRTlast (mean retention time)
Description: as §1, §2
The lung tissues were added to saline in a weight to volume ratio of 1:4 (g:mL). A homogenate was obtained by beating, dispersing and evenly grinding with a homogenizer under an ice water bath, and centrifuged at 6500 r/min for 20 min to obtain the supernatant of the lung tissue homogenate.
as §3, §4, §5

[4] = male, SD, inhaled or intranasal, AH in rat plasma, pulmonary administration group, BA/AH-DPI 9 mg/kg
[5] = male, SD, inhaled, rat plasma, pulmonary administration BA/AH-DPI 9 mg/kg
[6] = male, SD, AH in rat plasma, tail intravenous injection group, 9 mg/kg
[7] = male, SD, rat plasma, tail intravenous injection BA/AH-DPI saline solution 9 mg/kg
[8] = male, Sprague-Dawley (SD), rat plasma, tail intravenous injection BA/AH-DPI saline solution 9 mg/kg
[9] = Sprague-Dawley (SD), inhaled, pulmonary administration BA/AH-DPI 9 mg/kg
[10] = Sprague-Dawley (SD), inhaled or intranasal, pulmonary administration group, BA/AH-DPI 9 mg/kg
[11] = Sprague-Dawley (SD), tail intravenous injection group, 9 mg/kg
[12] = Sprague-Dawley (SD), tail intravenous injection BA/AH-DPI saline solution 9 mg/kg

## Nc1c(Br)cc(Br)cc1CNC1CCC(O)CC1 (stereo not drawn) [AH, ambroxol hydrochloride]
[1]
  D10: 0.77 μm
  D50: 3.07 μm
  D90: 8.43 μm
  SMD (Sauter mean diameter): 1.79 μm
  VMD (Volume median diameter): 3.93 μm
[1]; fraction of particles
  <3 μm: 49.10%
  <5 μm: 70.30%
[2]; AH in rat plasma, tail intravenous injection group, 9 mg/kg
  CL/F (clearance): 169.3805 ± 53.272 mL/min/kg
[2]; [4]
  Cmax: 1770 ± 382 ng/mL
  half-life: 109 ± 39.6 min
  MRT last: 49.8 ± 6 min
[2]; male, SD, inhaled or intranasal, AH in rat plasma, pulmonary administration group, BA/AH-DPI 9 mg/kg, read-out: CL/F (clearance) (converted)
  CL/F: 237 mL/min/kg
[2]; male, SD, inhaled or intranasal, AH in rat plasma, pulmonary administration group, BA/AH-DPI 9 mg/kg, read-out: Vz/F (apparent volume of distribution)
  Vd/F: 37.2 ± 15.6 L/kg
[2]; male, SD, inhaled, rat plasma, pulmonary administration of BA/AH-DPI vs tail intravenous injection, 9 mg/kg, read-out: Absolute bioavailability
  bioavailability: 53.5%
[2]; [5]
  concentration at 2 min: 763 ± 101 ng/mL
  concentration at 10 min: 1130 ± 170 ng/mL
  concentration at 15 min: 464 ± 191 ng/mL
  concentration at 30 min: 280 ± 75.8 ng/mL
  concentration at 60 min: 124 ± 35.3 ng/mL
  concentration at 120 min: 40.2 ± 21.1 ng/mL
  concentration at 240 min: 21 ± 6.64 ng/mL
  concentration at 360 min: 8.57 ± 0.38 ng/mL
[2]; [6]
  Cmax: 3300 ± 1440 ng/mL
  Tmax: 1.98 min
  half-life: 146 ± 53.4 min
  MRT last: 49.2 ± 10.2 min
[2]; [7]
  concentration at 10 min: 395 ± 142 ng/mL
  concentration at 15 min: 306 ± 140 ng/mL
  concentration at 30 min: 252 ± 116 ng/mL
  concentration at 60 min: 148 ± 58.7 ng/mL
  concentration at 120 min: 49.4 ± 23 ng/mL
  concentration at 240 min: 33.9 ± 12.2 ng/mL
  concentration at 360 min: 18.9 ± 6.61 ng/mL
[2]; male, Sprague-Dawley (SD), inhaled or intranasal, AH in rat plasma, pulmonary administration group, BA/AH-DPI 9 mg/kg
  Tmax: 4.02 min
[2]; male, Sprague-Dawley (SD), inhaled, rat plasma, pulmonary administration BA/AH-DPI 9 mg/kg
  concentration at 4 min: 1770 ± 382 ng/mL
[2]; [8]
  concentration at 2 min: 3300 ± 1690 ng/mL
  concentration at 4 min: 598 ± 233 ng/mL
[2]; rat, pulmonary administration of BA/AH-DPI 9 mg/kg
  Time of maximum blood concentration in plasma: 4 min
[3]; pulmonary administration group, BA/AH-DPI 9 mg/kg
  CL/F (clearance): 876.24 ± 146.55 g/h/kg
[3]; tail intravenous injection group, 9 mg/kg
  CL/F (clearance): 1454.72 ± 257.24 g/h/kg
[3]; SD, tail intravenous injection BA/AH-DPI saline solution 9 mg/kg
  concentration at 2 min: 3230 ± 973 ng/mL
[3]; [9]
  concentration at 2 min: 7610 ± 1750 ng/mL
  concentration at 4 min: 5150 ± 879 ng/mL
  concentration at 10 min: 2450 ± 384 ng/mL
  concentration at 15 min: 1320 ± 524 ng/mL
  concentration at 30 min: 798 ± 289 ng/mL
  concentration at 60 min: 503 ± 200 ng/mL
  concentration at 120 min: 256 ± 139 ng/mL
  concentration at 240 min: 153 ± 60 ng/mL
  concentration at 360 min: 66.2 ± 38.2 ng/mL
[3]; [10]
  Cmax: 30400 ± 6970 ng/g
  Tmax: 2.34 ± 0.78 min
  half-life: 91.8 ± 26.4 min
  MRT last: 72.6 ± 12 min
[3]; [11]
  Cmax: 12900 ± 3890 ng/g
  Tmax: 1.98 min
  half-life: 72.6 ± 11.4 min
  MRT last: 60.6 ± 7.2 min
[3]; [12]
  concentration at 4 min: 1780 ± 454 ng/mL
  concentration at 10 min: 1230 ± 183 ng/mL
  concentration at 15 min: 1030 ± 210 ng/mL
  concentration at 30 min: 780 ± 243 ng/mL
  concentration at 60 min: 352 ± 83.1 ng/mL
  concentration at 120 min: 135 ± 58.9 ng/mL
  concentration at 240 min: 68.4 ± 24.5 ng/mL
  concentration at 360 min: 23.4 ± 10.5 ng/mL
